This note sets out measurements from patent EP4711355A1, “CRYSTAL FORM OF LIPOPROTEIN COMPOUND AND PREPARATION METHOD THEREFOR” (Jiangsu Hengrui Pharmaceuticals Co., Ltd., priority 2023, dated 2024).

Counter-ions that a name gives are not always drawn.

In general, AUC refers to concentration integrated over time.

The nature of data set [1]: DVS hygroscopicity test (dynamic moisture sorption). Type of data set: physicochemical. The note with it: at 80% RH; listed as hydrochloride crystal form e. On the procedure:
DVS stands for dynamic moisture sorption: using the Surface Measurement Systems instrument, humidity started at 50% and the humidity range investigated was 0%-95% with a step of 10%. The judgment standard is that the mass change of each gradient dM/dT is ≤ 0.002%, TMAX is 360 min, and there are two cycles.

A short description of data set [2]: Long-term accelerated stability test (Test Example 3), sealed in aluminum foil bags. Type of data set: physicochemical. The following applies: for physicochemical stability: 25°C/60%RH and 40°C/75%RH for 6 months.
Data set [3] is described as follows: Long-term accelerated stability test (Test Example 4), sealed in aluminum foil bag (nitrogen-filled). Type of data set: physicochemical.
Data set [4] in a line: In vivo pharmacokinetic study in beagle dogs. The following applies: male, dog, plasma, po, gavage, 10 mg/kg. On the procedure: With beagle dogs as test animals, the drug concentration in the plasma of beagle dogs at different time points after oral administration of the compound of the present disclosure was determined by using LC/MS/MS. The pharmacokinetic behavior of the compound of the present disclosure in beagle dogs was studied to evaluate its pharmacokinetic characteristics.
Experimental animals: 2 healthy male beagle dogs aged 8 to 36 months per group
Drug preparation: A certain amount of drug was weighed and prepared into a 2 mg/mL colorless clear solution with normal saline.
Administration: Beagle dogs were fasted overnight and administered with the drug by gavage. The dosage of reference 1 and the compound of Example 6 was both 10 mg/kg.
Procedure: Beagle dogs were administered by gavage with the compound of the present disclosure. Approximately 0.6 mL of blood was collected by peripheral venipuncture at 0.25, 0.5, 1, 2, 4, 6, 8, and 24 h after administration. The blood was placed in a tube containing EDTA-K2 and centrifuged at 2000 rpm for 10 min at approximately 4°C to separate the plasma, which was then stored at -75°C.
Determination of the content of the test compound in beagle dog plasma at different blood collection time points: 33 µL of beagle dog plasma (30 µL plasma and 3 µL blank) collected at each time point after administration was added to 18 µL of 6% perchloric acid solution, vortexed for 30 s, and centrifuged at 3900 rpm at 4°C for 15 min. Then, 200 µL of alkaline (pH 10-11 as adjusted with ammonia water) acetonitrile solution containing internal standard dexamethasone was added to precipitate the protein. The mixture was vortexed for 30 s and centrifuged at 3900 rpm at 4°C for 15 min. The supernatant of the plasma sample was taken, diluted 3-fold with water, and 8 µL was taken for LC/MS/MS analysis.
After the blood drug concentration was determined by LC/MS/MS analysis, the pharmacokinetic parameters were calculated using WinNonlin 6.1 software and the non-compartmental model method. Table 1 Pharmacokinetic parameters of the compounds of the present disclosure in beagle dogs

Take `O=C(O)[C@@H](Cc1cccc(CN(CCOc2cccc(C[C@H](C(=O)O)[C@H]3CCNC3)c2)Cc2cccc(C[C@H](C(=O)O)[C@H]3CCNC3)c2)c1)[C@H]1CCNC1` [hydrochloride (1:1) crystal form e, (2S)-3-(3-{[(2-{3-[(2S)-2-carboxyl-2-[(3R)-pyrrolidin-3-yl]ethyl]phenoxy}ethyl)({3-[(2S)-2-carboxyl-2-[(3R)-pyrrolidin-3-yl]ethyl]phenyl}methyl)amino]methyl}phenyl)-2-[(3R)-pyrrolidin-3-yl]propionic acid]: in data set [1], the “DVS hygroscopicity weight gain” value was 18%. The Crystal form entry in data set [2] (0 day) is “Hydrochloride crystal form e”; in data set [2] (25°C-60%RH, 1 month) it was “Unchanged”; in data set [2] (25°C-60%RH, 3 months), “Unchanged”; in data set [2] (25°C-60%RH, 6 months), “Unchanged”; in data set [2] (25°C-60%RH, 7 days) it was “Unchanged”; in data set [2] (25°C-60%RH, 14 days), “Unchanged”. Also, the Crystal form result is “Unchanged” in data set [2] (40°C-75%RH, 1 month); “Unchanged” in data set [2] (40°C-75%RH, 3 months); “Unchanged” in data set [2] (40°C-75%RH, 6 months); “Unchanged” in data set [2] (40°C-75%RH, 7 days); “Unchanged” in data set [2] (40°C-75%RH, 14 days). Also, the “Purity (%)” value in data set [2] (0 day) is 99.9%; in data set [2] (25°C-60%RH, 1 month) it was 99.9%; in data set [2] (25°C-60%RH, 3 months), 99.9%; in data set [2] (25°C-60%RH, 6 months), 99.9%; in data set [2] (25°C-60%RH, 7 days) it was 99.9%; in data set [2] (25°C-60%RH, 14 days), 99.9%. Also, the “Purity (%)” value in data set [2] (40°C-75%RH, 1 month) stood at 99.9%; in data set [2] (40°C-75%RH, 3 months), 99.9%; in data set [2] (40°C-75%RH, 6 months) it was 99.9%; in data set [2] (40°C-75%RH, 7 days), 99.9%; in data set [2] (40°C-75%RH, 14 days), 99.9%. Further, the physicochemical stability entry in data set [2] is recorded as “good”.

Consider `O=C(O)[C@@H](Cc1cccc(CN(CCOc2cccc(C[C@H](C(=O)O)[C@H]3CCNC3)c2)Cc2cccc(C[C@H](C(=O)O)[C@H]3CCNC3)c2)c1)[C@H]1CCNC1` [free crystal form C, (2S)-3-(3-{[(2-{3-[(2S)-2-carboxyl-2-[(3R)-pyrrolidin-3-yl]ethyl]phenoxy}ethyl)({3-[(2S)-2-carboxyl-2-[(3R)-pyrrolidin-3-yl]ethyl]phenyl}methyl)amino]methyl}phenyl)-2-[(3R)-pyrrolidin-3-yl]propionic acid], for which the Crystal form result is given as “Crystal form C” in data set [3] (0 day); “Unchanged” in data set [3] (25°C-60%RH, 1 month); “Unchanged” in data set [3] (25°C-60%RH, 3 months); “Unchanged” in data set [3] (25°C-60%RH, 6 months); “Unchanged” in data set [3] (25°C-60%RH, 7 days); “Unchanged” in data set [3] (25°C-60%RH, 14 days). Also, the Crystal form entry is recorded as “Unchanged” in data set [3] (40°C-75%RH, 1 month); “Unchanged” in data set [3] (40°C-75%RH, 3 months); “Unchanged” in data set [3] (40°C-75%RH, 6 months); “Unchanged” in data set [3] (40°C-75%RH, 7 days); “Unchanged” in data set [3] (40°C-75%RH, 14 days). The “Purity (%)” value in data set [3] (0 day) came out at 99.8%; in data set [3] (25°C-60%RH, 1 month) it was 99.8%; in data set [3] (25°C-60%RH, 3 months), 99.7%; in data set [3] (25°C-60%RH, 6 months), 99.7%; in data set [3] (25°C-60%RH, 7 days) it was 99.8%; in data set [3] (25°C-60%RH, 14 days) it was 99.8%. Besides, the “Purity (%)” value in data set [3] (40°C-75%RH, 1 month) came to 99.8%; in data set [3] (40°C-75%RH, 3 months), 99.3%; in data set [3] (40°C-75%RH, 6 months) it was 99.3%; in data set [3] (40°C-75%RH, 7 days), 99.8%; in data set [3] (40°C-75%RH, 14 days) it was 99.8%. Besides, the physicochemical stability entry in data set [3] (25°C/60%RH and 40°C/75%RH for 6 months) was “good”.

As to `Cl.Cl.Cl.Cl.O=C(O)[C@@H](Cc1cccc(CN(CCOc2cccc(C[C@H](C(=O)O)[C@H]3CCNC3)c2)Cc2cccc(C[C@H](C(=O)O)[C@H]3CCNC3)c2)c1)[C@H]1CCNC1` [Compound A hydrochloride, (2S)-3-(3-{[(2-{3-[(2S)-2-carboxyl-2-[(3R)-pyrrolidin-3-yl]ethyl]phenoxy}ethyl)({3-[(2S)-2-carboxyl-2-[(3R)-pyrrolidin-3-yl]ethyl]phenyl}methyl)amino]methyl}phenyl)-2-[(3R)-pyrrolidin-3-yl]propionic acid tetrahydrochloride], the AUC in data set [4] (read-out: Area under curve AUC) came to 28600 ng·h/mL. Also, the half-life in data set [4] (read-out: Half life T1/2 (converted)) was 18.3 h. For the same molecule, the Cmax in data set [4] (read-out: Maximum blood concentration Cmax) is 2470 ng/mL.

On to `O=C(O)[C@@H](Cc1cccc(CN(CCOc2cccc(C[C@H](C(=O)O)[C@H]3CCNC3)c2)Cc2cccc(C[C@H](C(=O)O)[C@H]3CCNC3)c2)c1)[C@H]1CCNC1` [hydrochloride (1:1) amorphous form, (2S)-3-(3-{[(2-{3-[(2S)-2-carboxyl-2-[(3R)-pyrrolidin-3-yl]ethyl]phenoxy}ethyl)({3-[(2S)-2-carboxyl-2-[(3R)-pyrrolidin-3-yl]ethyl]phenyl}methyl)amino]methyl}phenyl)-2-[(3R)-pyrrolidin-3-yl]propionic acid], for which the Crystal form result in data set [2] (0 day) is “Amorphous form”; in data set [2] (25°C-60%RH, 1 month), “Crystal form a”; in data set [2] (25°C-60%RH, 2 months) it was “Crystal form a”; in data set [2] (25°C-60%RH, 3 months), “Crystal form a”; in data set [2] (25°C-60%RH, 7 days), “Unchanged”; in data set [2] (25°C-60%RH, 14 days), “Unchanged”. Moreover, the Crystal form entry in data set [2] (40°C-75%RH, 1 month) is reported as “Crystal form a”; in data set [2] (40°C-75%RH, 2 months) it was “Crystal form a”; in data set [2] (40°C-75%RH, 3 months), “Crystal form a”; in data set [2] (40°C-75%RH, 7 days), “Crystal form a”; in data set [2] (40°C-75%RH, 14 days) it was “Crystal form a”. Moreover, the “Purity (%)” value in data set [2] (0 day) worked out at 98.8%; in data set [2] (25°C-60%RH, 1 month) it was 98.7%; in data set [2] (25°C-60%RH, 2 months) it was 98.6%; in data set [2] (25°C-60%RH, 3 months) it was 98.2%; in data set [2] (25°C-60%RH, 7 days), 98.8%; in data set [2] (25°C-60%RH, 14 days), 98.8%. For the same molecule, the “Purity (%)” value in data set [2] (40°C-75%RH, 1 month) is given as 97.6%; in data set [2] (40°C-75%RH, 2 months) it was 95.6%; in data set [2] (40°C-75%RH, 3 months), 95.3%; in data set [2] (40°C-75%RH, 7 days), 98.3%; in data set [2] (40°C-75%RH, 14 days), 98.1%. Moreover, in data set [2], the physicochemical stability result is “slightly less stable”.

For `Cl.Cl.Cl.Cl.O=C(O)[C@@H](Cc1cccc(CN(CCOc2cccc(C[C@H](C(=O)O)[C@H]3CCNC3)c2)Cc2cccc(C[C@H](C(=O)O)[C@H]3CCNC3)c2)c1)[C@H]1CCNC1` [hydrochloride (1:4) amorphous form, (2S)-3-(3-{[(2-{3-[(2S)-2-carboxyl-2-[(3R)-pyrrolidin-3-yl]ethyl]phenoxy}ethyl)({3-[(2S)-2-carboxyl-2-[(3R)-pyrrolidin-3-yl]ethyl]phenyl}methyl)amino]methyl}phenyl)-2-[(3R)-pyrrolidin-3-yl]propionic acid tetrahydrochloride], the Crystal form result in data set [2] (0 day) is on record as “Amorphous form”; in data set [2] (25°C-60%RH, 1 month) it was “Unchanged”; in data set [2] (25°C-60%RH, 2 months) it was “Deliquescent”; in data set [2] (25°C-60%RH, 3 months) it was “Deliquescent”; in data set [2] (25°C-60%RH, 6 months), “Deliquescent”; in data set [2] (25°C-60%RH, 7 days), “Unchanged”. The Crystal form result in data set [2] (25°C-60%RH, 14 days) was “Unchanged”; in data set [2] (40°C-75%RH, 1 month), “Deliquescent”; in data set [2] (40°C-75%RH, 2 months), “Deliquescent”; in data set [2] (40°C-75%RH, 3 months) it was “Deliquescent”; in data set [2] (40°C-75%RH, 6 months), “Deliquescent”; in data set [2] (40°C-75%RH, 7 days), “Unchanged”. In data set [2] (40°C-75%RH, 14 days), the Crystal form result is given as “Unchanged”. In addition, the “Purity (%)” value in data set [2] (0 day) is on record as 99.8%; in data set [2] (25°C-60%RH, 1 month) it was 99.8%; in data set [2] (25°C-60%RH, 2 months) it was 99.8%; in data set [2] (25°C-60%RH, 3 months), 99.8%; in data set [2] (25°C-60%RH, 6 months), 99.8%; in data set [2] (25°C-60%RH, 7 days), 99.8%. Besides, the “Purity (%)” value in data set [2] (25°C-60%RH, 14 days) was found to be 99.8%; in data set [2] (40°C-75%RH, 1 month), 99.8%; in data set [2] (40°C-75%RH, 2 months), 99.8%; in data set [2] (40°C-75%RH, 3 months), 99.8%; in data set [2] (40°C-75%RH, 6 months) it was 99.8%; in data set [2] (40°C-75%RH, 7 days), 99.8%. In addition, in data set [2] (40°C-75%RH, 14 days), the “Purity (%)” value was 99.8%. The physicochemical stability result in data set [2] is “slightly less stable”.
